# Results published in patent publication US20210115104A1, “AMYLIN ANALOGUES” (Zealand Pharma A/S, priority 2015, published 2021).
# *1 amine or outer side, *2 acyl side, *3 side chain or, on linkers, in order; H or OH if unused. Where a SMILES comes first, the peptide text is derived from it. Bridges are numbered along the chain shown (N, C = ends). [ ]: non-standard residue; d: D form. The star is where a group is joined. C20 diacid = O=C(O)CCCCCCCCCCCCCCCCCCC(=O)*; γGlu = O=C(O)[C@H](CCC(=O)[*:2])N[*:1]; NMeI = CC[C@H](C)[C@H](NC)C(=O)O; Sar = CNCC(=O)O
# Key:
# [1] = target: T1, human calcitonin receptor (hCTR2) (Homo sapiens, UniProt P30988); experiment: hCTR2 cAMP assay (AlphaScreen) in COS7 cells; assay type: cell-based; conditions: cAMP induction, COS7 cells expressing hCTR2; Table 1; read-out: hCTR2 EC50
# T1 construct: expressed in transfected cells
# T1 sequence (P30988 25-474): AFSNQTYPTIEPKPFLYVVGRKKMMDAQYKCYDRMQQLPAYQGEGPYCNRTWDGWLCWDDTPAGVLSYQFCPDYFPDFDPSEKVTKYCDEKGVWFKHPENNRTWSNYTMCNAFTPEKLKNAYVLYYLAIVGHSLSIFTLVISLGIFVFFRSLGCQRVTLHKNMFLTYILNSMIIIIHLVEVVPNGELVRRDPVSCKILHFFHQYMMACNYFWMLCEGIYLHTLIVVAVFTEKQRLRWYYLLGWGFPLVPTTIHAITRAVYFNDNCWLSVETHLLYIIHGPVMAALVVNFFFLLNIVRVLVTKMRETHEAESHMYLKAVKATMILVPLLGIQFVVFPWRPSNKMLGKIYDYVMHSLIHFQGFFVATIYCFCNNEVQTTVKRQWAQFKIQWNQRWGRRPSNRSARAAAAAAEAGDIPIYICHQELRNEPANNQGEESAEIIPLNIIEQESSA
# In short: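 cAMP induction, read by AlphaScreen after lysis, gives EC50 values via 4PL curve fitting. Peptides were applied at rising concentrations for 15 min at 37 °C, with IBMX and 0.1% casein in HEPES-buffered Tyrode pH 7.4, to COS7 cells (no endogenous RAMPs) stably expressing human CTR2.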
# [2] = target: T2, human amylin receptor 3 (hAMYR3), hCTR2 co-expressed with hRAMP3 (Homo sapiens, UniProt O60896+P30988); experiment: hAMYR3 cAMP assay (AlphaScreen) in COS7 cells; assay type: cell-based; conditions: cAMP induction, COS7 cells expressing hAMYR3; Table 1; read-out: hAMYR3 EC50
# T2 construct: expressed in transfected cells
# T2 sequence (P30988 25-474): T1 sequence (P30988 25-474)
# T2 sequence (O60896 24-148 partner): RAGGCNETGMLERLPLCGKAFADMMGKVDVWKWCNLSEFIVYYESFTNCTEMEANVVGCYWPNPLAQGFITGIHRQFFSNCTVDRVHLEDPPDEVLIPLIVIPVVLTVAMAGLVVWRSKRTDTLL
# In short: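 EC50 values derive from 4PL curve fits of cAMP (AlphaScreen) in lysates of RAMP-naive COS7 cells stably carrying hCTR2 plus hRAMP3. Peptide dilution series were applied for 15 min at 37 °C in pH 7.4 Tyrode buffer containing 100 µM IBMX and 0.1% casein.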
# [3] = Assessment of physical stability (Thioflavin T fibrillation); assay type: physicochemical; design: key: FND = fibrillation not detected; FD = fibrillation detected; conditions: 1 mg/ml, 40° C., ThT; for Fibrillation pH 4.0 (Ac): 50 mM acetate buffer pH 4.0, 96 hours; for Fibrillation pH 7.0 (His): 50 mM histidine buffer pH 7.0, 96 hours; for Fibrillation pH 7.0 (Phos.): 50 mM phosphate buffer pH 7.0, 96 hours
# In short: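 Fibrillation lag-time, in hours, taken where regressions of the initial stable phase and the growth phase intersect. ThT (40 μM) fluorescence monitored at 40 °C for 96 h, 10-min reads each preceded by 300 s mixing. Peptide at 1 mg/ml in 50 mM buffers: phosphate or histidine pH 7.0, acetate pH 4.0.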
SMILES,EC50 [1],EC50 [2],Fibrillation pH 4.0 (Ac) [3],Fibrillation pH 7.0 (His) [3],Fibrillation pH 7.0 (Phos.) [3]
"CC[C@H](C)[C@@H](C(=O)N[C@@H](CC(C)C)C(=O)N[C@@H](CO)C(=O)N[C@@H](CO)C(=O)N[C@H](C(=O)N[C@@H](CCC(=O)O)C(=O)N[C@H](C(=O)NCC(=O)N[C@@H](CO)C(=O)N[C@@H](CCC(=O)O)C(=O)N[C@H](C(=O)N1CCC[C@H]1C(N)=O)[C@@H](C)O)C(C)C)[C@@H](C)O)N(C)C(=O)[C@H](C)NC(=O)CN(C)C(=O)[C@H](Cc1ccccc1)NC(=O)[C@H](CO)NC(=O)[C@H](CO)NC(=O)[C@H](CCCNC(=N)N)NC(=O)[C@H](Cc1c[nH]cn1)NC(=O)[C@H](CC(C)C)NC(=O)[C@H](Cc1ccccc1)NC(=O)[C@H](CC(=O)O)NC(=O)[C@H](C)NC(=O)[C@H](CC(C)C)NC(=O)[C@H](CCCNC(=N)N)NC(=O)[C@H](CCC(N)=O)NC(=O)[C@@H](NC(=O)[C@H](C)NC(=O)[C@@H]1CSSC[C@H](NC(=O)[C@H](CCCNC(=N)N)NC(=O)CC[C@H](NC(=O)CCCCCCCCCCCCCCCCCCC(=O)O)C(=O)O)C(=O)N[C@@H](CC(N)=O)C(=O)N[C@@H]([C@@H](C)O)C(=O)N[C@@H](C)C(=O)N[C@@H]([C@@H](C)O)C(=O)N1)[C@@H](C)O [Compound 1, [19CD]-isoGlu-R-C( )-NTAT-C( )-ATQRLADFLHRSSF-Gly(Me)-A-Ile(Me)-LSSTEVGSETP-NH2] ({C20 diacid-γGlu}-RCNTATCATQRLADFLHRSSF[Sar]A[NMeI]LSSTEVGSETP-NH2; disulfide 2-7)",0.079 nM,0.23 nM,FND,FND,FND
"CC[C@H](C)[C@@H](C(=O)N[C@@H](CC(C)C)C(=O)N[C@@H](CO)C(=O)N[C@@H](CO)C(=O)N[C@H](C(=O)N[C@@H](CCC(=O)O)C(=O)N[C@H](C(=O)NCC(=O)N[C@@H](CO)C(=O)N[C@@H](CCC(=O)O)C(=O)N[C@H](C(=O)N1CCC[C@H]1C(N)=O)[C@@H](C)O)C(C)C)[C@@H](C)O)N(C)C(=O)[C@H](C)NC(=O)CN(C)C(=O)[C@H](Cc1ccccc1)NC(=O)[C@@H](NC(=O)[C@H](CO)NC(=O)[C@H](CCCNC(=N)N)NC(=O)[C@H](Cc1c[nH]cn1)NC(=O)[C@H](CC(C)C)NC(=O)[C@H](Cc1ccccc1)NC(=O)[C@H](Cc1c[nH]cn1)NC(=O)[C@H](C)NC(=O)[C@H](CC(C)C)NC(=O)[C@H](CCCNC(=N)N)NC(=O)[C@H](CCC(N)=O)NC(=O)[C@@H](NC(=O)[C@H](C)NC(=O)[C@@H]1CSSC[C@H](NC(=O)[C@H](CCCNC(=N)N)NC(=O)CC[C@H](NC(=O)CCCCCCCCCCCCCCCCCCC(=O)O)C(=O)O)C(=O)N[C@@H](CC(N)=O)C(=O)N[C@@H]([C@@H](C)O)C(=O)N[C@@H](C)C(=O)N[C@@H]([C@@H](C)O)C(=O)N1)[C@@H](C)O)C(C)C [Compound 20, [19CD]-isoGlu-R-C( )-NTAT-C( )-ATQRLAHFLHRSVF-Gly(Me)-A-Ile(Me)-LSSTEVGSETP-NH2] ({C20 diacid-γGlu}-RCNTATCATQRLAHFLHRSVF[Sar]A[NMeI]LSSTEVGSETP-NH2; disulfide 2-7)",0.19 nM,0.33 nM,FND,FD,FND
"CC[C@H](C)[C@@H](C(=O)N[C@@H](CC(C)C)C(=O)N[C@@H](CO)C(=O)N[C@@H](CO)C(=O)N[C@H](C(=O)N[C@@H](CCC(=O)O)C(=O)N[C@H](C(=O)NCC(=O)N[C@@H](CO)C(=O)N[C@@H](CCC(=O)O)C(=O)N[C@H](C(=O)N1CCC[C@H]1C(N)=O)[C@@H](C)O)C(C)C)[C@@H](C)O)N(C)C(=O)[C@H](C)NC(=O)CN(C)C(=O)[C@H](Cc1ccccc1)NC(=O)[C@H](CO)NC(=O)[C@@H](NC(=O)[C@H](CCCNC(=N)N)NC(=O)[C@H](Cc1c[nH]cn1)NC(=O)[C@H](CC(C)C)NC(=O)[C@H](Cc1ccccc1)NC(=O)[C@H](Cc1c[nH]cn1)NC(=O)[C@H](C)NC(=O)[C@H](CC(C)C)NC(=O)[C@H](CCCNC(=N)N)NC(=O)[C@H](CCC(N)=O)NC(=O)[C@@H](NC(=O)[C@H](C)NC(=O)[C@@H]1CSSC[C@H](NC(=O)[C@H](CCCNC(=N)N)NC(=O)CC[C@H](NC(=O)CCCCCCCCCCCCCCCCCCC(=O)O)C(=O)O)C(=O)N[C@@H](CC(N)=O)C(=O)N[C@@H]([C@@H](C)O)C(=O)N[C@@H](C)C(=O)N[C@@H]([C@@H](C)O)C(=O)N1)[C@@H](C)O)C(C)C [Compound 21, [19CD]-isoGlu-R-C( )-NTAT-C( )-ATQRLAHFLHRVSF-Gly(Me)-A-Ile(Me)-LSSTEVGSETP-NH2] ({C20 diacid-γGlu}-RCNTATCATQRLAHFLHRVSF[Sar]A[NMeI]LSSTEVGSETP-NH2; disulfide 2-7)",0.12 nM,0.23 nM,FND,FD,FD
"CC[C@H](C)[C@@H](C(=O)N[C@@H](CC(C)C)C(=O)N[C@@H](CO)C(=O)N[C@@H](CO)C(=O)N[C@H](C(=O)N[C@@H](CC(=O)O)C(=O)N[C@H](C(=O)NCC(=O)N[C@@H](CO)C(=O)N[C@@H](CC(=O)O)C(=O)N[C@H](C(=O)N1CCC[C@H]1C(N)=O)[C@@H](C)O)C(C)C)[C@@H](C)O)N(C)C(=O)[C@H](C)NC(=O)CN(C)C(=O)[C@H](Cc1ccccc1)NC(=O)[C@H](CO)NC(=O)[C@H](CO)NC(=O)[C@H](CCCNC(=N)N)NC(=O)[C@H](Cc1c[nH]cn1)NC(=O)[C@H](CC(C)C)NC(=O)[C@H](Cc1ccccc1)NC(=O)[C@H](Cc1c[nH]cn1)NC(=O)[C@H](C)NC(=O)[C@H](CC(C)C)NC(=O)[C@H](CCCNC(=N)N)NC(=O)[C@H](CC(=O)O)NC(=O)[C@@H](NC(=O)[C@H](C)NC(=O)[C@@H]1CSSC[C@H](NC(=O)[C@H](CCCNC(=N)N)NC(=O)CC[C@H](NC(=O)CCCCCCCCCCCCCCCCCCC(=O)O)C(=O)O)C(=O)N2CCC[C@H]2C(=O)N[C@@H]([C@@H](C)O)C(=O)N[C@@H](C)C(=O)N[C@@H]([C@@H](C)O)C(=O)N1)[C@@H](C)O [Compound 27, [19CD]-isoGlu-R-C( )-PTAT-C( )-ATDRLAHFLHRSSF-Gly(Me)-A-Ile(Me)-LSSTDVGSDTP-NH2] ({C20 diacid-γGlu}-RCPTATCATDRLAHFLHRSSF[Sar]A[NMeI]LSSTDVGSDTP-NH2; disulfide 2-7)",0.063 nM,0.16 nM,FD,FD,FD
